According to paper PMC6017121, “New Thiazoline-Tetralin Derivatives and Biological Activity Evaluation” (Molecules : A Journal of Synthetic Chemistry and Natural …, 2018):

Columns and labels:
[1] = test system: human breast adenocarcinoma cell line (MCF-7); assay: MTT cytotoxicity assay on MCF-7; format: cell-based; conditions: for IC50: Homo sapiens, MCF7, MTT, 24 h incubation; for SI MCF-7 (selectivity index): NIH/3T3 versus MCF-7
Protocol: (§1) This is a colorimetric assay that measures the reduction of 3-(4,5-dimethylthiazol-2-yl)-2,4,diphenyltetrazolium bromide (MTT) by mitochondria. All final compounds were tested against human breast adenocarcinoma cell line (MCF-7), human lung carcinoma cell line (A549) and mouse embryooblast cell line (NIH/3T3) to determine their cytotoxic profile. Cancer cells were cultured in RPMI medium (Hyclone, Thermo Scientific, Waltham, MA, USA) at 37 °C in a humidified atmosphere of 95% air and 5% CO2. The studied cells were situated at 2 × 10^4 cells into each well of 96-well microtiter tissue culture plates (Nunc, Denmark) and incubated for 24 h. After that, test compounds were dissolved in DMSO and added to culture wells at varying concentrations (85–1000 µM). After a 24 h incubating period, […] MTT solution (5 mg/mL MTT powder in PBS) was added to each well and the cells were incubated for 4 h at 37 °C. The purple formazan crystals produced were dissolved in DMSO and the absorbance was read by ELISA reader (OD570 nm). The percent values of cell proliferations were calculated relative to controls, whose cell proliferations were accepted as 100% [47].

[2] = test system: human lung carcinoma cell line (A549); assay: MTT cytotoxicity assay on A549; format: cell-based; conditions: for IC50: Homo sapiens, A549, MTT, 24 h incubation; for SI A549 (selectivity index): NIH/3T3 versus A549
Protocol: as §1

[3] = test system: mouse embryoblast cell line (NIH/3T3); assay: MTT cytotoxicity assay on NIH/3T3 (healthy cells); format: cell-based; conditions: NIH3T3, 24 h incubation
Protocol: as §1

[4] = molecular target: butyrylcholinesterase (BuChE) (Homo sapiens, UniProt P06276); assay: biochemical; conditions: 80 µg/mL (~160 µM)
Chain of butyrylcholinesterase (BuChE) (P06276 29-602): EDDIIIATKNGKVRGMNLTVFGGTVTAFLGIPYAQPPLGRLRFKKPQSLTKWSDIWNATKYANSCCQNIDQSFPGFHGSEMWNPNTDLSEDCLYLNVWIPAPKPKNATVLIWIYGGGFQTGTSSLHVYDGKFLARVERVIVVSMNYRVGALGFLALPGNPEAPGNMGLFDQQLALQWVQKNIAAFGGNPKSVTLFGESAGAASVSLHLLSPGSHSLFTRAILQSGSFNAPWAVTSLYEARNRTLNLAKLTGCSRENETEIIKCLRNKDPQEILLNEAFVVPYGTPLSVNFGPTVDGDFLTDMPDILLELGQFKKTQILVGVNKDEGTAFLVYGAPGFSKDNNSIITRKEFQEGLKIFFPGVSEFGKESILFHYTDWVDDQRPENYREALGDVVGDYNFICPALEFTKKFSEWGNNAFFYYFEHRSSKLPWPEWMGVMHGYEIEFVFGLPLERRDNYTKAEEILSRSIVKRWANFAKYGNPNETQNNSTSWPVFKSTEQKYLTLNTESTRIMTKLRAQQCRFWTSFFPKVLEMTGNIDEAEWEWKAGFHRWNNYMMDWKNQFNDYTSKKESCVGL
Protocol: (§2) In order to determine the acetyl- and butyrylcholinesterase enzyme inhibitions, experiments were carried out by making some changes in the method developed by Ellman. Samples were prepared by dissolving in the appropriate solvent. Adding 20 μL enzyme solution (AChE or BuChE, 1 U/mL) and 10 μL sample solution to 2.4 mL buffer solution and it was incubated for 15 min at 37 °C. After incubation, 50 μL DTNB and 75 mM ATCI solution or 20 μL of 25 mM BTCI solution were added and allowed the mixture to incubate at room temperature for 30 min. For the control group, only 10 μL of solvent was added instead of the sample solution provided all protocols are the same. […] Experiments were run in triplicate. The inhibition fractions of AChE […] BuChE enzymes were calculated using the following equation:I(%) = 100 − ([…]) × 100

[5] = molecular target: acetylcholinesterase (AChE) (Homo sapiens, UniProt P22303); assay: biochemical; conditions: 80 µg/mL (~160 µM)
Chain of acetylcholinesterase (AChE) (P22303 32-614, species assumed): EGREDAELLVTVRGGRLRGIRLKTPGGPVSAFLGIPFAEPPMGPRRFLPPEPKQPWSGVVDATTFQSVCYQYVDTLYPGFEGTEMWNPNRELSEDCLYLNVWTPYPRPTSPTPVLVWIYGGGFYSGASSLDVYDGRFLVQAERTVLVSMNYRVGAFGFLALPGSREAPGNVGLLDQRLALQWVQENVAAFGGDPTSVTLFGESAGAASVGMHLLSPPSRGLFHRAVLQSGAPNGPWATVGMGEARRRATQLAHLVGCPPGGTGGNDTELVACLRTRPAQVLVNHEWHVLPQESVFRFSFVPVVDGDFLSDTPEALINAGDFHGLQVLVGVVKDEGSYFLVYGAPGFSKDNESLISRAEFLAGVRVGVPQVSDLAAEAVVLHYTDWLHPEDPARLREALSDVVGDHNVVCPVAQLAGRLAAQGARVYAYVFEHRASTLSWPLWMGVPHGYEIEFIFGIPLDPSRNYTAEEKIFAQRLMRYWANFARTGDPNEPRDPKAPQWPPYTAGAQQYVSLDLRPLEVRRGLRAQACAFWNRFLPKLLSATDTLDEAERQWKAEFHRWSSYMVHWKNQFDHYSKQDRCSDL
Protocol: as §2

[6] = test system: A549 cells; assay: Annexin V-FITC/propidium iodide flow cytometry on A549; format: cell-based, human; conditions: A549 cell line, IC50 concentration; for % Early Apoptotic / % Late Apoptotic / % Necrotic / % Viable: 24 h
Protocol: Evaluation of apoptosis was carried out through the Annexin V-FITC Apoptosis Detection Kit from BD, Pharmingen, according to the manufacturer’s instruction. […] Then cells were rinsed with cold water twice and resuspended in Annexin V-FITC binding buffer at a concentration of 1 × 10^6 cells/mL. […] of Annexin V-FITC was used to stain the cells. After 15 min of incubation at 25 °C, the cell suspension was centrifugated for 5 min and cells were resuspended in Annexin V-FITC binding buffer. Propidium iodide ([…]) was added and the tubes were situated on ice and away from light. The fluorescence was measured using a flow cytometer. The results were analyzed by using FCSExpress software and represented as percentage of normal and apoptotic cells at various stages. […] The four areas in the diagrams stand for necrotic cells (Q1, positive for PI and negative for annexin/FITC, left square on the top), live cells (Q3, negative for annexin and PI, left square at the bottom), late apoptotic or necrotic cells (Q2, positive for annexin and PI, right square on the top) and apoptotic cells (Q4, negative for PI and positive for annexin, right square at the bottom), respectively. The experiment was repeated three times.

Structure (SMILES) | IC50 [1] | SI MCF-7 (selectivity index) [1] | IC50 [2] | SI A549 (selectivity index) [2] | IC50 [3] | inhibition at 160 µM [4] | inhibition at 160 µM [5] | apoptosis (early + late apoptotic cell percentage) A549 [6] | % Early Apoptotic [6] | % Late Apoptotic [6] | % Necrotic [6] | % Viable [6] | inhibition at 80 µg/mL [4]
O=C(COc1ccc2c(c1)CCCC2)NN=c1scc(-c2ccccc2)n1C1CCCCC1 [Compound 4a, N′-(3-Cyclohexyl-4-phenylthiazole-2(3H)-ylidene)-2-[(5,6,7,8-tetrahydronaphthalen-2-yl)oxy]acetohydrazide] | > 1000 µM | < 0.2 | 158 ± 14.8 µM | 1.3 | 206 ± 15.3 µM | 28 ± 1.88% | 38.3 ± 2.18% | over 50% | 7.4% | 48.3% | 12.8% | 31.5% | –
O=C(COc1ccc2c(c1)CCCC2)NN=c1scc(-c2ccccc2)n1-c1ccccc1 [Compound 4c, N′-[3,4-Diphenylthiazole-2(3H)-ylidene]-2-[(5,6,7,8-tetrahydronaphthalen-2-yl)oxy]acetohydrazide] | 297 ± 46.6 µM | > 3.4 | > 1000 µM | – | > 1000 µM | 16.48 ± 0.08% | 19.3 ± 1.87% | – | – | – | – | – | –
O=C(COc1ccc2c(c1)CCCC2)NN=c1scc(-c2ccc(Br)cc2)n1-c1ccccc1 [Compound 4f, N′-[3-Phenyl-4-(4-bromophenyl)thiazole-2(3H)-ylidene]-2-[(5,6,7,8-tetrahydronaphthalen-2-yl)oxy]acetohydrazide] | 281 ± 56.2 µM | 0.5 | 54.3 ± 6.8 µM | 2.7 | 147 ± 5.4 µM | – | 42.9 ± 2.84% | over 41.5% | 16.5% | 29.3% | 6.5% | 47.7% | < 0%
O=C(COc1ccc2c(c1)CCCC2)NN=c1scc(-c2ccc(Cl)cc2)n1-c1ccccc1 [Compound 4g, N′-[3-Phenyl-4-(4-chlorophenyl)thiazole-2(3H)-ylidene]-2-[(5,6,7,8-tetrahydronaphthalen-2-yl)oxy]acetohydrazide] | 483 ± 31.2 µM | 0.5 | 28.6 ± 4.1 µM | 7.8 | 224 ± 20.5 µM | – | 24.4 ± 1.2% | over 41.5% | 18.7% | 26.0% | 5.8% | 49.4% | < 0%
O=C(COc1ccc2c(c1)CCCC2)NN=c1scc(-c2cccc([N+](=O)[O-])c2)n1-c1ccccc1 [Compound 4i, N′-[3-Phenyl-4-(3-nitrophenyl)thiazole-2(3H)-ylidene]-2-[(5,6,7,8-tetrahydronaphthalen-2-yl)oxy]acetohydrazide] | > 1000 µM | – | > 1000 µM | – | > 1000 µM | – | 41.85 ± 0.23% | – | – | – | – | – | < 0%
O=C(COc1ccc2c(c1)CCCC2)NN=c1scc(-c2ccc([N+](=O)[O-])cc2)n1-c1ccccc1 [Compound 4j, N′-[3-Phenyl-4-(4-nitrophenyl)thiazole-2(3H)-ylidene]-2-[(5,6,7,8-tetrahydronaphthalen-2-yl)oxy]acetohydrazide] | > 1000 µM | – | 49 ± 1.41 µM | > 20.4 | > 1000 µM | – | 45 ± 1.6% | over 41.5% | 11.2% | 30.3% | 11.4% | 47.0% | < 0%
